Reference: US10463644B2, “Uses of sesquiterpene lactone compounds and their derivatives in drugs preparation” (ACCENDATECH, priority 2013, dated 2019)
Read-outs that look alike come from different tables or passages of the source.

Tests used:
[1] = system: cancer stem cells; test: Survival rate of cancer stem cells after test compound is added (flow cytometry, Annexin V-FITC/PI, clinical specimen); format: cell-based, patient; conditions: Homo sapiens, 18 h
Text: (§1) Take fresh or cryopreserved clinical specimen (acute myelogenous leukemia (AML, marker is CD34^+/CD38^+), chronic myelogenous leukemia (CML, Ph+/CD34+/CXCR4+), chronic lymphocytic leukemia (CLL,CD133+/CD19−/CD38−), skin cancer (CD34+), breast cancer (CD44+/CD24−/ESA+), ovarian cancer (CD44+/CD117+), brain tumor (CD133+) prostate cancer (CD44+/CD24−), head-neck squamous cell carcinoma (CD44+), laryngeal cancer (CD133+), pancreatic cancer (ESA+/CD44+/CD24+), retinoblastoma (ABCG2/ALDH1), Children hepatoblastoma (CD34+/THY1+/c-kit+), liver cancer (CD133+), malignant melanoma (CD133+), colorectal cancer (EpCAM^high/CD44+), colon adenocarcinoma (CD44^high), glioma (ABCG-2/BCRP1), gastrointestinal tumor (ABCG-2/BCRP1), nasopharynx cancer (ABCG2), brain glioma (Dlk-1/Pref-1), gastric cancer (CD45+), lung adenocarcinoma (Sca-1/CD45-/Pecam-/CD34+), lung cancer (CD133+CD34+CD44+)) of patient. Take the acute myelogenous leukemia as the example, conduct density gradient centrifugation with Ficoll and take out the middle mononuclear cells, re-suspend it with serum-free IMDM after centrifuged. Adjust the concentration of cells into 1×10^6/mL and lay 24-well plate with 1 mL in each well, and then treat 18 hours with the compound to select with corresponding concentration. Collect the cells and centrifuge them at 1500 rps for 8 minutes, re-suspend the precipitation with […], mark the antibodies related to leukemia stem cell, avoid light to incubate 30 minutes at room temperature and then centrifuge it at 1500 rps, then wash away the unbound antibody CD34^+CD38^+. Re-suspend it with 100 μl 1× Binding Buffer and add respectively 5 μl Annexin V-FITC and PI, then avoid light to incubate 15 minutes before add 200 μl 1× Binding Buffer, then use flow cytometry to examine the marked apoptosis within one hour.

[2] = system: PGE2 secreted by synoviocyte; test: Content of PGE2 in culture supernatant of synoviocyte of RA model rats given test compound; format: in vivo; conditions: rat RA model, dose 30 mg/kg.2d; normal control 8.34 ± 1.29, NaCl 32.44 ± 10.32
Summary of the method: (§2)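 RA model rats received test compound at 30 mg/kg.2d, with normal control and NaCl groups run in parallel. Synoviocytes were then cultured from the animals, and the culture supernatant was assayed for secreted cytokine or PGE2.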

[3] = system: IL-1β secreted by synoviocyte; test: Content of IL-1β in culture supernatant of synoviocyte of RA model rats given test compound; format: in vivo; conditions: rat RA model, dose 30 mg/kg.2d; normal control 0.16 ± 0.034, NaCl 0.49 ± 0.136
Summary of the method: as §2

[4] = system: cancer cells; test: Survival rate of cancer cells after test compound is added (flow cytometry, Annexin V-FITC/PI, clinical specimen); format: cell-based, patient; conditions: Homo sapiens, 18 h, read-out: Survival rate (%) All cells (Stem cells and ordinary cells)
Text: as §1

[5] = system: TNF-α secreted by synoviocyte; test: Content of TNF-α in culture supernatant of synoviocyte of RA model rats given test compound; format: in vivo; conditions: rat RA model, dose 30 mg/kg.2d; normal control 0.38 ± 0.027, NaCl 0.74 ± 0.098
Summary of the method: as §2

[6] = Head and neck squamous cell carcinomas

## CCOC(=O)[C@@H]1CCCN1C[C@@H]1C(=O)O[C@H]2[C@H]1CCC1(CC1)[C@@H]1CCC3(CC3)[C@H]21 [Compound 29]
[1]; AML
  viability at 10 µM: 84%
  viability at 20 µM: 78%
[1]; Brain glioma
  viability at 10 µM: 82%
  viability at 20 µM: 76%
[1]; Brain tumor
  viability at 10 µM: 87%
  viability at 20 µM: 76%
[1]; Breast cancer
  viability at 10 µM: 79%
  viability at 20 µM: 72%
[1]; CLL
  viability at 10 µM: 85%
  viability at 20 µM: 79%
[1]; CML
  viability at 10 µM: 81%
  viability at 20 µM: 75%
[1]; Children hepatoblastoma
  viability at 10 µM: 85%
  viability at 20 µM: 77%
[1]; Colon adenocarcinoma
  viability at 10 µM: 81%
  viability at 20 µM: 75%
[1]; Colorectal cancer
  viability at 10 µM: 84%
  viability at 20 µM: 78%
[1]; Gastric cancer
  viability at 10 µM: 79%
  viability at 20 µM: 72%
[1]; Gastrointestinal tumor
  viability at 10 µM: 81%
  viability at 20 µM: 75%
[1]; Glioma
  viability at 10 µM: 84%
  viability at 20 µM: 78%
[1]; [6]
  viability at 10 µM: 82%
  viability at 20 µM: 74%
[1]; Laryngeal cancer
  viability at 10 µM: 85%
  viability at 20 µM: 79%
[1]; Liver cancer
  viability at 10 µM: 85%
  viability at 20 µM: 77%
[1]; Lung adenocarcinoma
  viability at 10 µM: 88%
  viability at 20 µM: 81%
[1]; Lung cancer
  viability at 10 µM: 87%
  viability at 20 µM: 76%
[1]; Malignant melanoma
  viability at 10 µM: 82%
  viability at 20 µM: 73%
[1]; Nasopharynx cancer
  viability at 10 µM: 85%
  viability at 20 µM: 79%
[1]; Ovarian cancer
  viability at 10 µM: 88%
  viability at 20 µM: 81%
[1]; Pancreatic cancer
  viability at 10 µM: 82%
  viability at 20 µM: 76%
[1]; Prostate cancer
  viability at 10 µM: 85%
  viability at 20 µM: 79%
[1]; Retinoblastoma
  viability at 10 µM: 85%
  viability at 20 µM: 77%
[1]; Skin cancer
  viability at 10 µM: 82%
  viability at 20 µM: 73%
[2]
  Content of PGE2 in culture supernatant of synoviocyte (x ± s): 27.64 ± 2.37 ng/mL
[3]
  Content of IL-1β in culture supernatant of synoviocyte (x ± s): 0.34 ± 0.039 ng/mL
[4]; AML
  viability at 10 µM: 91%
  viability at 20 µM: 88%
[4]; Brain glioma
  viability at 10 µM: 89%
  viability at 20 µM: 86%
[4]; Brain tumor
  viability at 10 µM: 94%
  viability at 20 µM: 87%
[4]; Breast cancer
  viability at 10 µM: 88%
  viability at 20 µM: 81%
[4]; CLL
  viability at 10 µM: 88%
  viability at 20 µM: 85%
[4]; CML
  viability at 10 µM: 87%
  viability at 20 µM: 83%
[4]; Children hepatoblastoma
  viability at 10 µM: 92%
  viability at 20 µM: 89%
[4]; Colon adenocarcinoma
  viability at 10 µM: 87%
  viability at 20 µM: 83%
[4]; Colorectal cancer
  viability at 10 µM: 91%
  viability at 20 µM: 88%
[4]; Gastric cancer
  viability at 10 µM: 88%
  viability at 20 µM: 81%
[4]; Gastrointestinal tumor
  viability at 10 µM: 87%
  viability at 20 µM: 83%
[4]; Glioma
  viability at 10 µM: 91%
  viability at 20 µM: 88%
[4]; [6]
  viability at 10 µM: 88%
  viability at 20 µM: 85%
[4]; Laryngeal cancer
  viability at 10 µM: 93%
  viability at 20 µM: 86%
[4]; Liver cancer
  viability at 10 µM: 92%
  viability at 20 µM: 89%
[4]; Lung adenocarcinoma
  viability at 10 µM: 91%
  viability at 20 µM: 89%
[4]; Lung cancer
  viability at 10 µM: 94%
  viability at 20 µM: 87%
[4]; Malignant melanoma
  viability at 10 µM: 91%
  viability at 20 µM: 87%
[4]; Nasopharynx cancer
  viability at 10 µM: 88%
  viability at 20 µM: 85%
[4]; Ovarian cancer
  viability at 10 µM: 91%
  viability at 20 µM: 89%
[4]; Pancreatic cancer
  viability at 10 µM: 88%
  viability at 20 µM: 89%
[4]; Prostate cancer
  viability at 10 µM: 93%
  viability at 20 µM: 86%
[4]; Retinoblastoma
  viability at 10 µM: 92%
  viability at 20 µM: 89%
[4]; Skin cancer
  viability at 10 µM: 91%
  viability at 20 µM: 87%
[5]
  Content of TNF-α in culture supernatant of synoviocyte (x ± s): 0.66 ± 0.046 ng/mL
